For data set [1], the system named is tumor xenograft mouse model. The conditions noted are these: free drug; before effective anti-tumor activity could be observed; cited from earlier work.
Data set [2] concerns U.S. National Cancer Institute 60 tumor cell lines. The arrangement: method as in PMID 16489930. As to conditions: percent of cell lines tested; cited from earlier work.
Data set [3] concerns canine iUC. The conditions noted are these: randomized trial in dogs with iUC; cited from earlier work.
The nature of data set [4]: Plasma pharmacokinetic analysis. The data set is classed as in vivo, dog. The conditions noted are these: EC0347 in plasma after single EC0531 0.28 mg/kg IV. On the procedure:
Plasma pharmacokinetic analysis was conducted in six dogs sequentially enrolled in the trial. Blood was collected at 0, 2, 10, and 30 minutes, and at 1, 2, 8, and 24 hours after treatment.
Tubes were centrifuged, and plasma collected and stored at –80° C.
For the analysis of EC0531 concentrations in plasma, the EC0531 was extracted from 100 µL of dog plasma by 96-well solid phase extraction (SPE). Internal standard was added to all samples prior to extraction using a Strata X-A SPE plate (Phenomenex, Torrance, CA, USA). The eluate was collected, evaporated, and finally reconstituted with 85/15 water/acetonitrile with 40 mM mannitol. The extracted samples were injected into a UPLC/MS/MS system (Waters, Milford, MA, USA) using a BEH C18 reverse phase column (Waters) implementing a mobile phase gradient. Incurred sample concentrations were then back-calculated against a calibration curve prepared in blank dog plasma.
Internal standard was added to all samples prior to extraction using a 200 µL SLE+ plate (Biotage, Charlotte, NC, USA). The eluate was collected, evaporated, and reconstituted with acetone prior to sealing and heating the collection plate for 1 hour. After incubation, the extracts were again evaporated and finally reconstituted prior to injection. The extracted samples were injected into a UPLC/MS/MS system (Waters) using a BEH shield RP18 reverse phase column (Waters) and eluted under isocratic conditions. […] Incurred sample concentrations were then back-calculated against a calibration curve prepared in blank dog plasma. […] Samples were homogenized in buffer with a bead beater, or hand held homogenizer. Aliquots (100 µL) of each sample were spiked with 400 µL internal standards in acetone. The extracts were sealed and incubated at 55° C for 1 hour. The extracts were then evaporated to remove acetone, and reconstituted. Finally, reconstituted samples were analyzed by injection into a UPLC-MS/MS system (Waters) to evaluate concentrations of EC0531 and metabolites against a prepared calibration curve.

Turning to `CC[C@]1(O)C[C@@H]2CN(CCc3c([nH]c4ccccc34)[C@@](C(=O)OC)(c3cc4c(cc3OC)N(C)[C@H]3[C@@](O)(C(=O)NN)[C@H](O)[C@]5(CC)C=CCN6CC[C@]43[C@@H]65)C2)C1` [DAVLBH, desacetylvinblastine monohydrazide], in data set [1], the “toxicity in tumor xenograft mouse model” value is “unacceptable toxicity”.

As for `CC[C@H](C)[C@H](NC(=O)[C@H]1CCCCN1C)C(=O)N(COC(=O)CC(C)C)[C@H](C[C@@H](OC(C)=O)c1nc(C(=O)N[C@@H](Cc2ccc(O)cc2)C[C@H](C)C(=O)O)cs1)C(C)C` [tubulysin A], in data set [2], the “cell lines with growth inhibition” value was 33%.

`CC[C@]1(O)C[C@@H]2CN(CCc3c([nH]c4ccccc34)[C@@](C(=O)OC)(c3cc4c(cc3OC)N(C)[C@H]3[C@@](O)(C(=O)OC)[C@H](OC(C)=O)[C@]5(CC)C=CCN6CC[C@]43[C@@H]65)C2)C1` [vinblastine]: the “PR, percent of dogs” value in data set [3] is 22%.

Regarding `CCCC(=O)OCN(C(=O)[C@@H](NC(=O)[C@H]1CCCCN1C)C(C)CC)[C@H](C[C@@H](OC(C)=O)c1nc(C(=O)N[C@@H](Cc2ccc(O)cc2)C[C@H](C)C(=O)NN)cs1)C(C)C` (stereo partly drawn) [EC0347], in data set [4] (Avg of six dogs), the “Cmax, EC0347 (free drug)” value is listed as 2.3 ng/mL and the “Tmax, EC0347 (free drug)” value came out at 12.0 min. Also, the “Tmax, EC0347 (free drug)” value in data set [4] (individual dogs #1-6 (c0)) came out at 10.0 min.

The values are drawn from article PMC6319348, “Phase I/II clinical trial of the targeted chemotherapeutic drug, folate-tubulysin, in dogs with naturally-occurring invasive urothelial carcinoma” (Oncotarget, 2018).
